Settings: Liquid, Vibrating tube method

CCCC[n+]1cccc(C)c1.N#C[N-]C#N [1-butyl-3-methylpyridinium dicyanamide]
Settings	mass density [kg/m3]
283.15 K, 100 kPa	1058.8
283.15 K, 5000 kPa	1060.66
283.15 K, 10000 kPa	1062.55
283.15 K, 15000 kPa	1064.33
283.15 K, 20000 kPa	1066.19
283.15 K, 25000 kPa	1067.75
288.15 K, 100 kPa	1055.64
288.15 K, 5000 kPa	1057.59
288.15 K, 10000 kPa	1059.47
288.15 K, 15000 kPa	1061.24
288.15 K, 20000 kPa	1063.09
288.15 K, 25000 kPa	1064.88
288.15 K, 30000 kPa	1066.59
288.15 K, 35000 kPa	1068.35
288.15 K, 40000 kPa	1070.07
288.15 K, 45000 kPa	1071.67
288.15 K, 50000 kPa	1073.24
293.15 K, 100 kPa	1052.56
293.15 K, 5000 kPa	1054.46
293.15 K, 10000 kPa	1056.37
293.15 K, 15000 kPa	1058.23
293.15 K, 20000 kPa	1060.01
293.15 K, 25000 kPa	1061.8
293.15 K, 30000 kPa	1063.56
293.15 K, 35000 kPa	1065.35
293.15 K, 40000 kPa	1066.96
293.15 K, 45000 kPa	1068.69
293.15 K, 50000 kPa	1070.15
293.15 K, 55000 kPa	1072.13
293.15 K, 60000 kPa	1073.41
293.15 K, 65000 kPa	1074.96
298.15 K, 100 kPa	1049.45
298.15 K, 5000 kPa	1051.35
298.15 K, 10000 kPa	1053.24
298.15 K, 15000 kPa	1055.19
298.15 K, 20000 kPa	1057.08
298.15 K, 25000 kPa	1058.87
298.15 K, 30000 kPa	1060.59
298.15 K, 35000 kPa	1062.37
298.15 K, 40000 kPa	1064.1
298.15 K, 45000 kPa	1065.73
298.15 K, 50000 kPa	1067.37
298.15 K, 55000 kPa	1069.04
298.15 K, 60000 kPa	1070.61
298.15 K, 65000 kPa	1072.1
303.15 K, 100 kPa	1046.36
303.15 K, 5000 kPa	1048.3
303.15 K, 10000 kPa	1050.18
303.15 K, 15000 kPa	1052.05
303.15 K, 20000 kPa	1053.94
303.15 K, 25000 kPa	1055.82
303.15 K, 30000 kPa	1057.57
303.15 K, 35000 kPa	1059.35
303.15 K, 40000 kPa	1061.07
303.15 K, 45000 kPa	1062.75
303.15 K, 50000 kPa	1064.4
303.15 K, 55000 kPa	1066.19
303.15 K, 60000 kPa	1067.59
303.15 K, 65000 kPa	1069.21
308.15 K, 100 kPa	1043.21
308.15 K, 5000 kPa	1045.23
308.15 K, 10000 kPa	1047.28
308.15 K, 15000 kPa	1049.14
308.15 K, 20000 kPa	1051.02
308.15 K, 25000 kPa	1052.92
308.15 K, 30000 kPa	1054.8
308.15 K, 35000 kPa	1056.51
308.15 K, 40000 kPa	1058.23
308.15 K, 45000 kPa	1059.9
308.15 K, 50000 kPa	1061.71
308.15 K, 55000 kPa	1063.27
308.15 K, 60000 kPa	1064.76
308.15 K, 65000 kPa	1066.44
313.15 K, 100 kPa	1040.26
313.15 K, 5000 kPa	1042.22
313.15 K, 10000 kPa	1044.29
313.15 K, 15000 kPa	1046.25
313.15 K, 20000 kPa	1048.15
313.15 K, 25000 kPa	1050.05
313.15 K, 30000 kPa	1051.8
313.15 K, 35000 kPa	1053.63
313.15 K, 40000 kPa	1055.42
313.15 K, 45000 kPa	1057.11
313.15 K, 50000 kPa	1058.82
313.15 K, 55000 kPa	1060.43
313.15 K, 60000 kPa	1062.05
313.15 K, 65000 kPa	1063.59
318.15 K, 100 kPa	1037.22
318.15 K, 5000 kPa	1039.29
318.15 K, 10000 kPa	1041.17
318.15 K, 15000 kPa	1043.3
318.15 K, 20000 kPa	1045.08
318.15 K, 25000 kPa	1046.98
318.15 K, 30000 kPa	1048.91
318.15 K, 35000 kPa	1050.75
318.15 K, 40000 kPa	1052.38
318.15 K, 45000 kPa	1054.09
318.15 K, 50000 kPa	1055.97
318.15 K, 55000 kPa	1057.54
318.15 K, 60000 kPa	1059.3
318.15 K, 65000 kPa	1060.96
323.15 K, 100 kPa	1034.21
323.15 K, 5000 kPa	1036.41
323.15 K, 10000 kPa	1038.36
323.15 K, 15000 kPa	1040.45
323.15 K, 20000 kPa	1042.21
323.15 K, 25000 kPa	1044.3
323.15 K, 30000 kPa	1046.05
323.15 K, 35000 kPa	1047.94
323.15 K, 40000 kPa	1049.73
323.15 K, 45000 kPa	1051.45
323.15 K, 50000 kPa	1053.22
323.15 K, 55000 kPa	1054.85
323.15 K, 60000 kPa	1056.49
323.15 K, 65000 kPa	1058.03
328.15 K, 100 kPa	1031.21
328.15 K, 5000 kPa	1033.17
328.15 K, 10000 kPa	1035.31
328.15 K, 15000 kPa	1037.3
328.15 K, 20000 kPa	1039.35
328.15 K, 25000 kPa	1041.31
328.15 K, 30000 kPa	1042.96
328.15 K, 35000 kPa	1044.93
328.15 K, 40000 kPa	1046.72
328.15 K, 45000 kPa	1048.66
328.15 K, 50000 kPa	1050.54
328.15 K, 55000 kPa	1052.18
328.15 K, 60000 kPa	1053.85
328.15 K, 65000 kPa	1055.47
333.15 K, 100 kPa	1027.63
333.15 K, 5000 kPa	1030.21
333.15 K, 10000 kPa	1032.34
333.15 K, 15000 kPa	1034.45
333.15 K, 20000 kPa	1036.45
333.15 K, 25000 kPa	1038.36
333.15 K, 30000 kPa	1040.39
333.15 K, 35000 kPa	1042.19
333.15 K, 40000 kPa	1044.05
333.15 K, 45000 kPa	1045.58
333.15 K, 50000 kPa	1047.67
333.15 K, 55000 kPa	1049.26
333.15 K, 60000 kPa	1051.06
333.15 K, 65000 kPa	1052.61

— the NIST ThermoML archive (doi:10.1016/j.fluid.2011.12.029)
